Results reported in patent US9212151B2, “Heterocyclic compounds useful for kinase inhibition” (Amitech Therapeutic Solutions, Inc., priority 2010, dated 2015).

Assay: MTT cell viability assay, compounds at 5, 1 and 0.2 μM, 48 hours
Type: cell-based
Conditions: human, A549 tumor cells, 0.2 μM
Procedure: MTT assay is used to determine cell proliferation, percent of viable cells, and cytotoxicity. MTT (3-[4,5-dimethylthiazol-2-yl]2,5-diphenyltetrazolium bromide) is a yellow dye, which can be absorbed by the living cells and be reduced to purplish blue formazan crystals by succinate tetrazolium reductase in mitochondria. Formazan formation can therefore be used to assess and determine the survival rate of cells.
Tumor cells (A549) were plated at 2500 cells/well of a 96-well plate in complete growth medium (DMEM+10% FBS, antibiotic/antimycotic, fungizone, L-glutamine, sodium pyruvate, and non-essential amino acids). The cells were allowed to grow overnight. After cell proliferation, the cells were washed and re-suspended in fresh culture medium and placed in 96 well plates.
To each of the 96 well plates containing A549 and a control, 5, 1, and 0.2 μM of the exemplary compounds 1-200 were add. The 96 well plates were incubated for 48 hours. Cell viability was measured by adding MTT (Sigma) at 5 mg/ml for 4 h to the cells and then removing the medium and resuspending each well in 50 μl DMSO to solubilize the crystals. The 96-well plates were read on a plate-scanning spectrophotometer (BioTek) at an absorbance of […]. The survival rate of cells was calculated based on the measurement of absorption at the 570 nm wavelength by enzyme immunoassay analyzer.

Row | SMILES | viability at 48 h, 0.2 µM [%]
1 | Nc1cc(Oc2ccc(-c3nnc(Nc4cccc(C(F)(F)F)c4)[nH]3)cc2)nc(SCC(=O)O)n1 [Compound 116] | > 70
2 | CNC(=O)CSc1nc(N)cc(Oc2ccc(-c3nnc(Nc4cccc(C(F)(F)F)c4)[nH]3)cc2)n1 [Compound 117] | > 70
3 | CNc1cc(Oc2ccc(-c3nnc(Nc4cccc(C(F)(F)F)c4)[nH]3)cc2)nc(SC)n1 [Compound 118] | > 70
4 | CSc1nc(N)cc(Sc2ccc(-c3nnc(Nc4cccc(C(F)(F)F)c4)[nH]3)cc2)n1 [Compound 119] | > 70
5 | CSc1nc(N)cc(Oc2ccc(-c3nnc(Nc4cc(C(F)(F)F)cc(C(F)(F)F)c4)[nH]3)cc2)n1 [Compound 120] | > 70
6 | CSc1nc(N)cc(Oc2ccc(-c3nnc(Nc4cc(C)ccc4F)[nH]3)cc2)n1 [Compound 121] | > 70
7 | CCc1cccc(Nc2nnc(-c3ccc(Oc4cc(N)nc(SC)n4)cc3)[nH]2)c1 [Compound 122] | > 70
8 | CSc1nc(N)cc(Oc2ccc(-c3nnc(Nc4cc(C)cc(C)c4)[nH]3)cc2)n1 [Compound 123] | < 50
9 | CSc1nc(N)cc(Oc2ccc(-c3nnc(Nc4ccc5c(c4)CCC5)[nH]3)cc2)n1 [Compound 124] | > 70
10 | CSc1nc(N)cc(Oc2ccc(-c3nnc(Nc4ccc(C)c(C)c4)[nH]3)cc2)n1 [Compound 125] | > 70
11 | CSc1nc(N)cc(Oc2ccc(-c3nnc(Nc4cccc(C)c4C)[nH]3)cc2)n1 [Compound 126] | < 50
12 | CSc1nc(N)cc(Oc2ccc(-c3nnc(Nc4ccc(C#N)cc4)[nH]3)cc2)n1 [Compound 127] | > 70
13 | CSc1nc(N)cc(Oc2ccc(-c3nnc(Nc4cccc(C#N)c4)[nH]3)cc2)n1 [Compound 128] | > 70
14 | CSc1nc(N)cc(Oc2ccc(-c3nnc(Nc4cc(C(C)(C)C)on4)[nH]3)cc2)n1 [Compound 129] | > 70
15 | CSc1nc(N)cc(Oc2ccc(-c3nnc(Nc4cccc(CC#N)c4)[nH]3)cc2)n1 [Compound 130] | > 70
16 | CSc1nc(N)cc(Oc2ccc(-c3nnc(Nc4cccc(C(C)(C)C#N)c4)[nH]3)cc2)n1 [Compound 131] | > 70
17 | CSc1nc(N)cc(Oc2ccc(-c3nnc(Nc4cc(C(C)(C)C)n[nH]4)[nH]3)cc2)n1 [Compound 132] | > 70
18 | CSc1nc(N)cc(Oc2ccc(-c3nnc(Nc4cccc(Cl)c4)[nH]3)cc2)n1 [Compound 133] | > 70
19 | CSc1nc(N)cc(Oc2ccc(-c3nnc(Nc4cccc(OC(C)C)c4)[nH]3)cc2)n1 [Compound 134] | > 70
20 | CSc1nc(N)cc(Oc2ccc(-c3nnc(Nc4cccc5c4CCCC5)[nH]3)cc2)n1 [Compound 135] | < 50
21 | CSc1nc(N)cc(Oc2ccc(-c3nnc(Nc4ccc5c(c4)-c4ccccc4C5)[nH]3)cc2)n1 [Compound 136] | > 70
22 | CSc1nc(N)cc(Oc2ccc(-c3nnc(Nc4cccc(C(F)(F)F)c4F)[nH]3)cc2)n1 [Compound 137] | > 70
23 | COC(=O)c1cccc(Nc2nnc(-c3ccc(Oc4cc(N)nc(SC)n4)cc3)[nH]2)c1 [Compound 138] | > 70

Same assay, conditions: human, A549 tumor cells, 1 μM

Row | SMILES | viability at 48 h, 1 µM [%]
24 | Nc1cc(Oc2ccc(-c3nnc(Nc4cccc(C(F)(F)F)c4)[nH]3)cc2)nc(SCC(=O)O)n1 [Compound 116] | > 70
25 | CNC(=O)CSc1nc(N)cc(Oc2ccc(-c3nnc(Nc4cccc(C(F)(F)F)c4)[nH]3)cc2)n1 [Compound 117] | > 70
26 | CNc1cc(Oc2ccc(-c3nnc(Nc4cccc(C(F)(F)F)c4)[nH]3)cc2)nc(SC)n1 [Compound 118] | > 70
27 | CSc1nc(N)cc(Sc2ccc(-c3nnc(Nc4cccc(C(F)(F)F)c4)[nH]3)cc2)n1 [Compound 119] | < 50
28 | CSc1nc(N)cc(Oc2ccc(-c3nnc(Nc4cc(C(F)(F)F)cc(C(F)(F)F)c4)[nH]3)cc2)n1 [Compound 120] | > 70
29 | CSc1nc(N)cc(Oc2ccc(-c3nnc(Nc4cc(C)ccc4F)[nH]3)cc2)n1 [Compound 121] | 50 to 70
30 | CCc1cccc(Nc2nnc(-c3ccc(Oc4cc(N)nc(SC)n4)cc3)[nH]2)c1 [Compound 122] | > 70
31 | CSc1nc(N)cc(Oc2ccc(-c3nnc(Nc4cc(C)cc(C)c4)[nH]3)cc2)n1 [Compound 123] | < 50
32 | CSc1nc(N)cc(Oc2ccc(-c3nnc(Nc4ccc5c(c4)CCC5)[nH]3)cc2)n1 [Compound 124] | > 70
33 | CSc1nc(N)cc(Oc2ccc(-c3nnc(Nc4ccc(C)c(C)c4)[nH]3)cc2)n1 [Compound 125] | > 70
34 | CSc1nc(N)cc(Oc2ccc(-c3nnc(Nc4cccc(C)c4C)[nH]3)cc2)n1 [Compound 126] | < 50
35 | CSc1nc(N)cc(Oc2ccc(-c3nnc(Nc4ccc(C#N)cc4)[nH]3)cc2)n1 [Compound 127] | > 70
36 | CSc1nc(N)cc(Oc2ccc(-c3nnc(Nc4cccc(C#N)c4)[nH]3)cc2)n1 [Compound 128] | > 70
37 | CSc1nc(N)cc(Oc2ccc(-c3nnc(Nc4cc(C(C)(C)C)on4)[nH]3)cc2)n1 [Compound 129] | > 70
38 | CSc1nc(N)cc(Oc2ccc(-c3nnc(Nc4cccc(CC#N)c4)[nH]3)cc2)n1 [Compound 130] | > 70
39 | CSc1nc(N)cc(Oc2ccc(-c3nnc(Nc4cccc(C(C)(C)C#N)c4)[nH]3)cc2)n1 [Compound 131] | > 70
40 | CSc1nc(N)cc(Oc2ccc(-c3nnc(Nc4cc(C(C)(C)C)n[nH]4)[nH]3)cc2)n1 [Compound 132] | > 70
41 | CSc1nc(N)cc(Oc2ccc(-c3nnc(Nc4cccc(Cl)c4)[nH]3)cc2)n1 [Compound 133] | < 50
42 | CSc1nc(N)cc(Oc2ccc(-c3nnc(Nc4cccc(OC(C)C)c4)[nH]3)cc2)n1 [Compound 134] | > 70
43 | CSc1nc(N)cc(Oc2ccc(-c3nnc(Nc4cccc5c4CCCC5)[nH]3)cc2)n1 [Compound 135] | < 50
44 | CSc1nc(N)cc(Oc2ccc(-c3nnc(Nc4ccc5c(c4)-c4ccccc4C5)[nH]3)cc2)n1 [Compound 136] | 50 to 70
45 | CSc1nc(N)cc(Oc2ccc(-c3nnc(Nc4cccc(C(F)(F)F)c4F)[nH]3)cc2)n1 [Compound 137] | < 50
46 | COC(=O)c1cccc(Nc2nnc(-c3ccc(Oc4cc(N)nc(SC)n4)cc3)[nH]2)c1 [Compound 138] | > 70

Same assay, conditions: human, A549 tumor cells, 5 μM

Row | SMILES | viability at 48 h, 5 µM [%]
47 | Nc1cc(Oc2ccc(-c3nnc(Nc4cccc(C(F)(F)F)c4)[nH]3)cc2)nc(SCC(=O)O)n1 [Compound 116] | > 70
48 | CNC(=O)CSc1nc(N)cc(Oc2ccc(-c3nnc(Nc4cccc(C(F)(F)F)c4)[nH]3)cc2)n1 [Compound 117] | > 70
49 | CNc1cc(Oc2ccc(-c3nnc(Nc4cccc(C(F)(F)F)c4)[nH]3)cc2)nc(SC)n1 [Compound 118] | > 70
50 | CSc1nc(N)cc(Sc2ccc(-c3nnc(Nc4cccc(C(F)(F)F)c4)[nH]3)cc2)n1 [Compound 119] | < 50
51 | CSc1nc(N)cc(Oc2ccc(-c3nnc(Nc4cc(C(F)(F)F)cc(C(F)(F)F)c4)[nH]3)cc2)n1 [Compound 120] | > 70
52 | CSc1nc(N)cc(Oc2ccc(-c3nnc(Nc4cc(C)ccc4F)[nH]3)cc2)n1 [Compound 121] | < 50
53 | CCc1cccc(Nc2nnc(-c3ccc(Oc4cc(N)nc(SC)n4)cc3)[nH]2)c1 [Compound 122] | < 50
54 | CSc1nc(N)cc(Oc2ccc(-c3nnc(Nc4cc(C)cc(C)c4)[nH]3)cc2)n1 [Compound 123] | < 50
55 | CSc1nc(N)cc(Oc2ccc(-c3nnc(Nc4ccc5c(c4)CCC5)[nH]3)cc2)n1 [Compound 124] | < 50
56 | CSc1nc(N)cc(Oc2ccc(-c3nnc(Nc4ccc(C)c(C)c4)[nH]3)cc2)n1 [Compound 125] | < 50
57 | CSc1nc(N)cc(Oc2ccc(-c3nnc(Nc4cccc(C)c4C)[nH]3)cc2)n1 [Compound 126] | < 50
58 | CSc1nc(N)cc(Oc2ccc(-c3nnc(Nc4ccc(C#N)cc4)[nH]3)cc2)n1 [Compound 127] | 50 to 70
59 | CSc1nc(N)cc(Oc2ccc(-c3nnc(Nc4cccc(C#N)c4)[nH]3)cc2)n1 [Compound 128] | > 70
60 | CSc1nc(N)cc(Oc2ccc(-c3nnc(Nc4cc(C(C)(C)C)on4)[nH]3)cc2)n1 [Compound 129] | > 70
61 | CSc1nc(N)cc(Oc2ccc(-c3nnc(Nc4cccc(CC#N)c4)[nH]3)cc2)n1 [Compound 130] | < 50
62 | CSc1nc(N)cc(Oc2ccc(-c3nnc(Nc4cccc(C(C)(C)C#N)c4)[nH]3)cc2)n1 [Compound 131] | < 50
63 | CSc1nc(N)cc(Oc2ccc(-c3nnc(Nc4cc(C(C)(C)C)n[nH]4)[nH]3)cc2)n1 [Compound 132] | < 50
64 | CSc1nc(N)cc(Oc2ccc(-c3nnc(Nc4cccc(Cl)c4)[nH]3)cc2)n1 [Compound 133] | < 50
65 | CSc1nc(N)cc(Oc2ccc(-c3nnc(Nc4cccc(OC(C)C)c4)[nH]3)cc2)n1 [Compound 134] | < 50
66 | CSc1nc(N)cc(Oc2ccc(-c3nnc(Nc4cccc5c4CCCC5)[nH]3)cc2)n1 [Compound 135] | < 50
67 | CSc1nc(N)cc(Oc2ccc(-c3nnc(Nc4ccc5c(c4)-c4ccccc4C5)[nH]3)cc2)n1 [Compound 136] | < 50
68 | CSc1nc(N)cc(Oc2ccc(-c3nnc(Nc4cccc(C(F)(F)F)c4F)[nH]3)cc2)n1 [Compound 137] | < 50
69 | COC(=O)c1cccc(Nc2nnc(-c3ccc(Oc4cc(N)nc(SC)n4)cc3)[nH]2)c1 [Compound 138] | < 50
